According to patent publication US9365522B2, “Pyrazole amide derivative” (AMGEN INC., priority 2015, dated 2016):

Molecular target: T1, ligand binding domain of human ROR gamma (Homo sapiens, UniProt P51449)
T1 construct: NM_001001523; expressed in transfected cells; host or cells: HEK293T
T1 sequence (P51449 247-497 isoform P51449-2): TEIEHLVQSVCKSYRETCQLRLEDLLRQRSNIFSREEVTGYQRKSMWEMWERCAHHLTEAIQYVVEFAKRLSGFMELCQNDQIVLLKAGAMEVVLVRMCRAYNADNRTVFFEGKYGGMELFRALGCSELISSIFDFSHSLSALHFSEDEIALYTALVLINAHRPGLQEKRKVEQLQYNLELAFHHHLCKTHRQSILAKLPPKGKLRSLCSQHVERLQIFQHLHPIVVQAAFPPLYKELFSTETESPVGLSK
Experiment: ROR gamma reporter gene assay (GAL4-RORγ LBD luciferase, Dual-Glo)
Format: cell-based
Details: HEK293T cells transfected with pM-ROR gamma, 8 concentrations 3.5 nM to 10.5 μM, 24 h incubation; for IC50: read-out: result (pIC50, inhibition of RORγ transcriptional activity) (converted)
Description: Luciferase reporter gene assay was used to assess inhibition of RORγ transcriptional activity.
ROR gamma expression vector was prepared by inserting the ligand binding domain of human ROR gamma (amino acid 247-497 of Genbank Accession NO. NM_001001523) adjacent to the yeast GAL4 transcription factor DNA binding domain in the expression vector pM (Clontech). The resulting expression vector pM-ROR gamma was used in transfection experiments together with the pGL4 luciferase reporter plasmid (Promega) containing five copies of the UAS GAL4 recognition site and pRL-CMV plasmids (Promega) containing the constitutive CMV promoter and the renilla luciferase.
For preparing transfection reagent/DNA mixture, 1 μg pM-ROR gamma, 1 μg pGL4 5×UAS, 625 pg pRL-CMV and 6.25 μL FuGENE™ HD transfection reagent (Promega) were mixed in 0.25 mL OPTI-MEM™ (Life technologies) at room temperature. At the same time, Negative control DNA mixture was prepared by using 1 μg pM empty vector instead of pM-ROR gamma plasmid. After a fifteen minute incubation, 0.25 mL of transfection reagent/DNA mixture was added to 1,000,000 of HEK293T cells (ATCC) in 5 mL of OPTI-MEM™ containing 10% Charcoal Stripped Fetal Bovine Serum.
Transfected cells were seeded onto 384 well plate (10 μL/well) and the 7.5 nL of test compounds were added to the wells in 8 concentrations ranging from 3.5 nM to 10.5 μM. The compounds were dissolved in 100% DMSO and the final concentration of DMSO in the assay was 0.075%.
After 24 h of incubation at 37° C., 5% CO2 in a cell culture incubator, the Dual-Glo™ Luciferase Assay System was used to detect activity according to the manufacturer's instructions (Promega, Cat. No.: E2920).
Data was plotted and pIC50 values were calculated using the XLfit program (ID Business Solutions Ltd.).

Structure (SMILES) | IC50 [pM] | result (pIC50, inhibition of RORγ transcriptional activity)
O=C(CN(CC1(C(F)(F)F)CC1)C(=O)c1cnn([C@H]2CC[C@H](C(=O)O)CC2)c1C(F)(F)F)c1c(Cl)cncc1Cl [Example 150, trans-4-(4-((2-(3,5-dichloropyridin-4-yl)-2-oxoethyl)-((1-(trifluoromethyl)cyclopropyl)methyl)carbamoyl)-5-(trifluoromethyl)pyrazol-1-yl)cyclohexane-1-carboxylic acid] | 53700 | –
C[C@@H](N(CC(=O)c1c(Cl)cncc1Cl)C(=O)c1cnn([C@H]2CC[C@H](C(=O)O)CC2)c1C(F)(F)F)C(C)(C)C [Example 115, trans-4-(4-((2-(3,5-dichloropyridin-4-yl)-2-oxoethyl)-((2R)-3,3-dimethylbutan-2-yl)carbamoyl)-5-(trifluoromethyl)pyrazol-1-yl)cyclohexane-1-carboxylic acid] | 158000 | –
CC(C)(C)OCCN(CC(=O)c1c(Cl)cc(C(F)(F)F)cc1Cl)C(=O)c1cnn([C@H]2CC[C@H](C(=O)O)CC2)c1C(F)(F)F [Example 144, trans-4-(4-((2-(2,6-dichloro-4-(trifluoromethyl)phenyl)-2-oxoethyl)-(2-((2-methylpropan-2-yl)oxy)ethyl)carbamoyl)-5-(trifluoromethyl)pyrazol-1-yl)cyclohexane-1-carboxylic acid] | 87100 | –
Cn1nc(Cl)c(C(=O)CN(Cc2cc(F)cc(F)c2)C(=O)c2cnn([C@H]3CC[C@H](C(=O)O)CC3)c2C(F)(F)F)c1Cl [Example 201, trans-4-(4-((2-(3,5-dichloro-1-methylpyrazol-4-yl)-2-oxoethyl)-((3,5-difluorophenyl)methyl)carbamoyl)-5-(trifluoromethyl)pyrazol-1-yl)cyclohexane-1-carboxylic acid] | > 1e+07 | –
CC1(C)CC[C@@H](CN(CC(=O)c2c(Cl)cncc2Cl)C(=O)c2cnn([C@H]3CC[C@H](C(=O)O)CC3)c2C(F)(F)F)O1 (relative stereo) [Example 14, trans-4-(4-((2-(3,5-dichloropyridin-4-yl)-2-oxoethyl)(((S)-5,5-dimethylTHF-2-yl)methyl)carbamoyl)-5-(trifluoromethyl)-1H-pyrazol-1-yl)cyclohexanecarboxylic acid] | – | 7.12
COc1cccc(O)c1C(=O)CN(Cc1cc(F)cc(F)c1)C(=O)c1cnn([C@H]2CC[C@H](C(=O)O)CC2)c1C(F)(F)F [Example 7, trans-4-(4-((3,5-difluorobenzyl)(2-(2-hydroxy-6-methoxyphenyl)-2-oxoethyl)carbamoyl)-5-(trifluoromethyl)-1H-pyrazol-1-yl)cyclohexanecarboxylic acid] | 4.57e+06 | –
CC(C)(C)[C@H]1C[C@H](N(CC(=O)c2c(Cl)cncc2Cl)C(=O)c2cnn([C@H]3CC[C@H](C(=O)O)CC3)c2C(F)(F)F)C1 [Example 132, trans-4-(4-((3-tert-butylcyclobutyl)-(2-(3,5-dichloropyridin-4-yl)-2-oxoethyl)carbamoyl)-5-(trifluoromethyl)pyrazol-1-yl)cyclohexane-1-carboxylic acid] | 66100 | –
CC(C)(F)CN(CC(=O)c1c(Cl)cncc1Cl)C(=O)c1cnn(C23CCC(C(=O)O)(CC2)CC3)c1C(F)(F)F [Example 327, 4-(4-((2-(3,5-dichloropyridin-4-yl)-2-oxoethyl)-(2-fluoro-2-methylpropyl)carbamoyl)-5-(trifluoromethyl)pyrazol-1-yl)bicyclo[2.2.2]octane-1-carboxylic acid] | 97700 | –
O=C(CN(CC1(F)CCCC1)C(=O)c1cnn(C23CCC(C(=O)O)(CC2)CC3)c1C(F)(F)F)c1c(Cl)cc(Cl)cc1Cl [Example 298, 4-(4-((1-fluorocyclopentyl)methyl-(2-oxo-2-(2,4,6-trichlorophenyl)ethyl)carbamoyl)-5-(trifluoromethyl)pyrazol-1-yl)bicyclo[2.2.2]octane-1-carboxylic acid] | 12900 | –

Second part, led by results:

IC50 [pM] | Structure (SMILES) | result (pIC50, inhibition of RORγ transcriptional activity)
11200 | CC(C)(C)CN(CC(=O)c1c(Cl)cccc1Cl)C(=O)c1cnn([C@H]2CC[C@](C)(C(=O)O)CC2)c1C(F)(F)F [Example 284, trans-4-(4-((2-(2,6-dichlorophenyl)-2-oxoethyl)-(2,2-dimethylpropyl)carbamoyl)-5-(trifluoromethyl)pyrazol-1-yl)-1-methylcyclohexane-1-carboxylic acid] | –
4370 | Cc1cc(Cl)c(C(=O)CN(CC2CC(C)(C)C2)C(=O)c2cnn([C@H]3CC[C@](C)(C(=O)O)CC3)c2C(F)(F)F)c(Cl)c1 [Example 238, trans-4-(4-((2-(2,6-dichloro-4-methylphenyl)-2-oxoethyl)-((3,3-dimethylcyclobutyl)methyl)carbamoyl)-5-(trifluoromethyl)pyrazol-1-yl)-1-methylcyclohexane-1-carboxylic acid] | –
145000 | COc1cccc(Cl)c1C(O)CN(C(=O)c1cnn([C@H]2CC[C@](C)(C(=O)O)CC2)c1C(F)(F)F)C1CCC(C)(C)CC1 (stereo partly drawn) [Example 336, trans-4-(4-((2-(2-chloro-6-methoxyphenyl)-2-hydroxyethyl)-(4,4-dimethylcyclohexyl)carbamoyl)-5-(trifluoromethyl)pyrazol-1-yl)-1-methylcyclohexane-1-carboxylic acid] | –
4.07e+06 | CC(C)(C)CN(CC(=O)c1c[nH]c2cccc(Cl)c12)C(=O)c1cnn([C@H]2CC[C@](C)(C(=O)O)CC2)c1C(F)(F)F [Example 352, trans-4-(4-((2-(4-chloro-1H-indol-3-yl)-2-oxoethyl)-(2,2-dimethylpropyl)carbamoyl)-5-(trifluoromethyl)pyrazol-1-yl)-1-methylcyclohexane-1-carboxylic acid] | –
6460 | CC12CCC(CN(CC(=O)c3c(Cl)cc(F)cc3Cl)C(=O)c3cnn([C@H]4CC[C@H](C(=O)O)CC4)c3C(F)(F)F)(CC1)C2 [Example 193, trans-4-(4-((2-(2,6-dichloro-4-fluorophenyl)-2-oxoethyl)-((1-methyl-4-bicycio[2.2.1]heptanyl)methyl)carbamoyl)-5-(trifluoromethyl)pyrazol-1-yl)cyclohexane-1-carboxylic acid] | –
47900 | CC(C)(C)OCCN(CC(=O)c1c(Cl)cc(F)cc1Cl)C(=O)c1cnn([C@H]2CC[C@](C)(C(=O)O)CC2)c1C(F)(F)F [Example 292, trans-4-(4-((2-(2,6-dichloro-4-fluorophenyl)-2-oxoethyl)-(2-((2-methylpropan-2-yl)oxy)ethyl)carbamoyl)-5-(trifluoromethyl)pyrazol-1-yl)-1-methylcyclohexane-1-carboxylic acid] | –
15100 | Cc1cc(Cl)c(C(=O)CN(C(=O)c2cnn([C@H]3CC[C@](C)(C(=O)O)CC3)c2Cl)[C@H]2C[C@@H]3[C@H](C2)C3(C)C)c(Cl)c1 [Example 366, trans-4-(5-chloro-4-((2-(2,6-dichloro-4-methylphenyl)-2-oxoethyl)((1R,3r,5S)-6,6-dimethylbicyclo[3.1.0]hexan-3-yl)carbamoyl)-1H-pyrazol-1-yl)-1-methylcyclohexanecarboxylic acid] | –
8320 | CC(C)(C)CN(CC(=O)c1c(Cl)cc(F)cc1Cl)C(=O)c1cnn([C@H]2CC[C@](C)(C(=O)O)CC2)c1C(F)(F)F [Example 94, trans-4-(4-((2-(2,6-dichloro-4-fluorophenyl)-2-oxoethyl)-(2,2-dimethylpropyl)carbamoyl)-5-(trifluoromethyl)pyrazol-1-yl)-1-methylcyclohexane-1-carboxylic acid] | –
> 1.05e+07 | CC(C)N1CCC(N(CC(=O)c2c(Cl)cc(F)cc2Cl)C(=O)c2cnn([C@H]3CC[C@](C)(C(=O)O)CC3)c2C(F)(F)F)CC1 [Example 296, trans-4-(4-((2-(2,6-dichloro-4-fluorophenyl)-2-oxoethyl)-(1-propan-2-ylpiperidin-4-yl)carbamoyl)-5-(trifluoromethyl)pyrazol-1-yl)-1-methylcyclohexane-1-carboxylic acid] | –
79400 | CC1(C)CCC(N(CCc2c[nH]c3cccc(Cl)c23)C(=O)c2cnn([C@H]3CC[C@](C)(C(=O)O)CC3)c2C(F)(F)F)CC1 [Example 349, trans-4-(4-(2-(4-chloro-1H-indol-3-yl)ethyl-(4,4-dimethylcyclohexyl)carbamoyl)-5-(trifluoromethyl)pyrazol-1-yl)-1-methylcyclohexane-1-carboxylic acid] | –
